Assay results taken from patent US5418162A, “Serotonin transporter CDNA” (Duke University, priority 1992, dated 1995).

Assays:
[1] = biological target: rat 5HT transporter (rSERT) (Rattus norvegicus, UniProt P31652); assay: [3H]5HT transport assay in HeLa cells transfected with BS4E-10 cDNA (rSERT); assay type: cell-based
[2] = biological target: human 5HT transporter (hSERT) (Homo sapiens, UniProt P31645); assay: [3H]5HT transport assay in HeLa cells transfected with hSERT cDNA
[3] = tested on: NCCc1c[nH]c2ccc(O)cc12; assay: cells, lysate or membranes; conditions: other: increasing concentrations of unlabeled 5HT, Eadie-Hofstee transformation, transfected HeLa cells; pH 7.4; 37.0 °C

Chain of rat 5HT transporter (rSERT) (P31652 whole entry): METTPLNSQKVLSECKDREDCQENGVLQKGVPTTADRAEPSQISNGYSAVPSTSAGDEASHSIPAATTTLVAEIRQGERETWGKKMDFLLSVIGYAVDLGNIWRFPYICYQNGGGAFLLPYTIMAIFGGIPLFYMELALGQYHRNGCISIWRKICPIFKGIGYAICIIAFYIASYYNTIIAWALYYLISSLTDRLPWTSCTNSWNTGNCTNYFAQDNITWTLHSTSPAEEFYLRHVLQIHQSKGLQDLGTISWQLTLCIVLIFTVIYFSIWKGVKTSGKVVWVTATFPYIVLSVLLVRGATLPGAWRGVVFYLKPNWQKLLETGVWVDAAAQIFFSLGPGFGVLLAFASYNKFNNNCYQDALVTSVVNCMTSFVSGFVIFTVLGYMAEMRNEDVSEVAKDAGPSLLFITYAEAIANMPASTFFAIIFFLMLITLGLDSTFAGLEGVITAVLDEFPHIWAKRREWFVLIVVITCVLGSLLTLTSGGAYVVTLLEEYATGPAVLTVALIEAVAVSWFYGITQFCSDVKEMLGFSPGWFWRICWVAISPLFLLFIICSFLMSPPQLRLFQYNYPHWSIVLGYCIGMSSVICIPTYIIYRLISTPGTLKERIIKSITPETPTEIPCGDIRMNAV
Chain of human 5HT transporter (hSERT) (P31645 whole entry): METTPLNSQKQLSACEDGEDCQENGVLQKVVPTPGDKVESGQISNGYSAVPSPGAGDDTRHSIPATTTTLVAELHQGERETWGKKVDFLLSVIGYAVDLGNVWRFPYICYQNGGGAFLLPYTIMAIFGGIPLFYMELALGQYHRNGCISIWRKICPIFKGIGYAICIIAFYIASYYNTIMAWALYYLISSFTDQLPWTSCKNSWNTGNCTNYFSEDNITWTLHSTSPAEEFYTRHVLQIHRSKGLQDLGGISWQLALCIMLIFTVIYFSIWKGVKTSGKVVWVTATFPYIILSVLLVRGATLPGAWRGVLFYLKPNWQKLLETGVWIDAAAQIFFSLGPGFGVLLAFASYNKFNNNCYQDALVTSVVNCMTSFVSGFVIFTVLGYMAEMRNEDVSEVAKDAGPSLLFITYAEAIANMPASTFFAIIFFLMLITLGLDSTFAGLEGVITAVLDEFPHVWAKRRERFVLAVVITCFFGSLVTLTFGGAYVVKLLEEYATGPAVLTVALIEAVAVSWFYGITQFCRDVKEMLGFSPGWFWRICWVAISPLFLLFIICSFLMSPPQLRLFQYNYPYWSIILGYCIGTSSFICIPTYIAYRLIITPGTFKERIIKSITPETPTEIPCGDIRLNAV

Row | Compound | Ki [1] | inhibition of 5HT uptake (in words) [2] | further results
1 | NC[C@H](O)c1ccc(O)c(O)c1 [noradrenaline] | > 10 µM | – | –
2 | CC(N)Cc1ccccc1 (stereo not drawn) [amphetamine] | – | block 5HT transport at low micromolar concentrations | –
3 | COC(=O)[C@H]1[C@@H](c2ccc(I)cc2)C[C@@H]2CC[C@H]1N2C.O=C(O)C(O)C(O)C(=O)O [RTI-55, 3β-[4-iodophenyl]tropan-2β-carboxylic acid methyl ester tartrate] | – | increased potency over cocaine | –
4 | NCCc1c[nH]cn1 [histamine] | > 10 µM | – | –
5 | human 5HT transporter (hSERT) (Homo sapiens) | – | – | Km [3]: 463 nM
6 | COC(=O)[C@H]1[C@@H](OC(=O)c2ccccc2)C[C@@H]2CC[C@H]1N2C [cocaine] | – | block 5HT transport at low micromolar concentrations | potency for 5HT transport inhibition compared with inhibition of the cloned NA carrier ([1]; rSERT in transfected cells vs cloned NA transporter): predictably lower potency; antagonism of 5HT transport (in words) ([1]; transfected HeLa cells): blocked 5HT transport
7 | NCCc1c[nH]c2ccc(O)cc12 [5HT, 5-hydroxytryptamine] | – | – | Vmax of 5HT transport ([1]; increasing concentrations of unlabeled 5HT, transfected HeLa cells): 6.7×10^-18 mol/cell/min; Km ([1]; read-out: Km of 5HT transport, increasing concentrations of unlabeled 5HT, transfected HeLa cells): 1500 nM
8 | OC1(c2ccc(Cl)cc2)c2ccccc2C2=NCCN21 (stereo not drawn) [mazindol] | 10 µM | – | –
9 | NCCc1ccc(O)c(O)c1 [Dopamine, dopamine] | > 10 µM | – | –
